Measurements published in ChEMBL document CHEMBL1155803 (Bioorg Med Chem, 2008).

Key:
[1] = Antagonist activity at peripheral muscarinic M3 receptor in guinea pig longitudinal ileum assessed as effect on arecaidin propargyl ester-induced contraction after 1 hr; type: functional, tissue-based, Cavia porcellus
[2] = molecular target: T1, Muscarinic acetylcholine receptor M2 (Homo sapiens, UniProt P08172); experiment: Displacement of [3H]N-methylscopolamine chloride from human cloned muscarinic M2 receptor expressed in CHOK1 cells; type: cell-based, CHO-K1
T1 sequence (P08172 whole entry): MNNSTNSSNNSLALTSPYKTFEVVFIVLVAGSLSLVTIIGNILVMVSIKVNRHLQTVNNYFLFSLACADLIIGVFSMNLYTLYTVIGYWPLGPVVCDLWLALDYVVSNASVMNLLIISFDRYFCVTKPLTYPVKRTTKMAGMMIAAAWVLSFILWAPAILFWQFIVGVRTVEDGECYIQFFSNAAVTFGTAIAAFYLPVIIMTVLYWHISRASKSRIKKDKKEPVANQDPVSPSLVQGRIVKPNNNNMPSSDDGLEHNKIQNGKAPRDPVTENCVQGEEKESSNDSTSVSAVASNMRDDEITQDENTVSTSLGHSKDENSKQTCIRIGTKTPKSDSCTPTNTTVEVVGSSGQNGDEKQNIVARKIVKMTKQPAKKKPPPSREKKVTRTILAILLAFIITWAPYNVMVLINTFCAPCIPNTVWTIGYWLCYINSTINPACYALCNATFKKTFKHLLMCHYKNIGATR

[3] = Antagonist activity at peripheral muscarinic M4 receptor in rabbit vas deferens assessed as effect on McN-A-343-induced contraction after 1 hr; type: functional, tissue-based; details: Oryctolagus cuniculus, read-out: pA2 (converted)
[4] = Antagonist activity at peripheral muscarinic M2 receptor in guinea pig left atrium assessed as effect on arecaidin propargyl ester-induced contraction after 1 hr; type: functional, tissue-based; details: Cavia porcellus, Cardiac atrium, read-out: pA2 (converted)
[5] = molecular target: T2, Muscarinic acetylcholine receptor M4 (Homo sapiens, UniProt P08173); experiment: Displacement of [3H]N-methylscopolamine chloride from human cloned muscarinic M4 receptor expressed in CHOK1 cells; type: cell-based, CHO-K1
T2 sequence (P08173 whole entry): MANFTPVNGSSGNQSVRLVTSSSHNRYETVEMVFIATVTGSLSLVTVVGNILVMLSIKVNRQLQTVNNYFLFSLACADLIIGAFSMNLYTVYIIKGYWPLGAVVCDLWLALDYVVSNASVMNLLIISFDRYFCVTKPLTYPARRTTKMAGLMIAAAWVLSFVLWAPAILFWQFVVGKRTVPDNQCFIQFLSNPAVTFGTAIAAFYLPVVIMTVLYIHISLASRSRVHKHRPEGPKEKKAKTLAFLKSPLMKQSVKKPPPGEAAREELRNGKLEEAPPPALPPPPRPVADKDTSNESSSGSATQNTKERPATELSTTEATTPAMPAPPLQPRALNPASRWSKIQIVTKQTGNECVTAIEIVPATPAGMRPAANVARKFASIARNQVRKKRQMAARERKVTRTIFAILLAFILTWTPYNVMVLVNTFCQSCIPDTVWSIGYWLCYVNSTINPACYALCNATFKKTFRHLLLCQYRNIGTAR

[6] = molecular target: Muscarinic acetylcholine receptor M3 (Homo sapiens, UniProt P20309); experiment: Displacement of [3H]N-methylscopolamine chloride from human cloned muscarinic M3 receptor expressed in CHOK1 cells; type: cell-based, CHO-K1
Chain of Muscarinic acetylcholine receptor M3 (P20309 whole entry): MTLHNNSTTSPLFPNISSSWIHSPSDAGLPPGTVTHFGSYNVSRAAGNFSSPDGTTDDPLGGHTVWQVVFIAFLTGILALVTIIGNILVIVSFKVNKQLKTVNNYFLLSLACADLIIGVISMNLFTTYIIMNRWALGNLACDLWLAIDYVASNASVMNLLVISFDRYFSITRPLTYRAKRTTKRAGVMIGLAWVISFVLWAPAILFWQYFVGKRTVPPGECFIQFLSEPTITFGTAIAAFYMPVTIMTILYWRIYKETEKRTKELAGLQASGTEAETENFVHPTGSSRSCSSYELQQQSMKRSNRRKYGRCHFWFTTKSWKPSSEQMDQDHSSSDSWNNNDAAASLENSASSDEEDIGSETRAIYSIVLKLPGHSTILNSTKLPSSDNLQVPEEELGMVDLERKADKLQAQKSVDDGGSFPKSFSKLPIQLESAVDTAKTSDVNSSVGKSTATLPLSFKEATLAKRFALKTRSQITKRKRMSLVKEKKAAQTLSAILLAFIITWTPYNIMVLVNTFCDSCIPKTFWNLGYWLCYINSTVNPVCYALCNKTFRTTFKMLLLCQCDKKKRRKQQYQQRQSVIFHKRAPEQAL

[7] = molecular target: T3, Muscarinic acetylcholine receptor M1 (Homo sapiens, UniProt P11229); experiment: Displacement of [3H]N-methylscopolamine chloride from human cloned muscarinic M1 receptor expressed in CHOK1 cells; type: cell-based, CHO-K1
T3 sequence (P11229 whole entry): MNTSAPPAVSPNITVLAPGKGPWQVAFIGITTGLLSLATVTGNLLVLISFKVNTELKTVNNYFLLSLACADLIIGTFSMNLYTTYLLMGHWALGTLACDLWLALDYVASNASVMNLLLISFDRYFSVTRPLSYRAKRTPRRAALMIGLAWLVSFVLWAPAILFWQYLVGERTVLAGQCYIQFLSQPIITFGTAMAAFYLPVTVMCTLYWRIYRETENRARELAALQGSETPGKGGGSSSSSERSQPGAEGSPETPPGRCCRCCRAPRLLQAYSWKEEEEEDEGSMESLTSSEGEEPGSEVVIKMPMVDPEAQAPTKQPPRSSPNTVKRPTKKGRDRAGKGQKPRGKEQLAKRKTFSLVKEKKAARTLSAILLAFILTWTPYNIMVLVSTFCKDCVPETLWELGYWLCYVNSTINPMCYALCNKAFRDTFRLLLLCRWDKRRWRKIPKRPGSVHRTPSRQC

Ki [2] | Ki [5] | Ki [6] | Ki [7] | Structure (SMILES) | pA2 [1] | Kb [3] | Kb [4]
– | – | – | – | CN(C)[C@@H]1CCCC[C@H]1N(C)CC(=O)N1c2ccccc2C(=O)Nc2cccnc21.O=C(O)C(=O)O.O=C(O)C(=O)O | 7.76 | – | –
– | – | – | – | CN(C)[C@H]1CCCC[C@@H]1N(C)CC(=O)N1c2ccccc2C(=O)Nc2cccnc21.O=C(O)C(=O)O.O=C(O)C(=O)O | 7.58 | – | –
– | – | – | – | CN(C)[C@@H]1CCCC[C@@H]1N(C)CC(=O)N1c2ccccc2C(=O)Nc2cccnc21.O=C(O)C(=O)O.O=C(O)C(=O)O | 7.57 | – | –
– | – | – | – | CN(C)[C@H]1CCCC[C@H]1N(C)CC(=O)N1c2ccccc2C(=O)Nc2cccnc21.O=C(O)C(=O)O.O=C(O)C(=O)O | 7.64 | – | –
1000 nM | 6610 nM | > 10000 nM | 2290 nM | CN1CCN(CC(=O)N2c3ccccc3C(=O)Nc3cccnc32)[C@@H]2CCCC[C@H]21 (relative stereo) | 6.47 | 79.4 nM | 87.1 nM
646 nM | 2450 nM | > 10000 nM | 1450 nM | CN1CCN(CC(=O)N2c3ccccc3C(=O)Nc3cccnc32)[C@@H]2CCCC[C@@H]21 (relative stereo) | 6.01 | 60.3 nM | 741 nM
– | – | – | – | CN1CCN(CC(=O)N2c3ccccc3C(=O)Nc3cccnc32)CC1 [PIRENZEPINE] | 6.88 | 8.91 nM | 339 nM

Structure (SMILES) | Ki [2] | Ki [5] | Ki [6] | Ki [7] | pA2 [1] | Kb [3] | Kb [4]
CN(CCCCCCCCN(C)CCCCCCN(CC(=O)N1c2ccccc2C(=O)Nc2cccnc21)CC(=O)N1c2ccccc2C(=O)Nc2cccnc21)CCCCCCNCC(=O)N1c2ccccc2C(=O)Nc2cccnc21 [TRIPITRAMINE] | – | 11.5 nM | 148 nM | 3.55 nM | 6.55 | 11.2 nM | –
